Test results published in article PMC9960930, “Saponin and Fatty Acid Profiling of the Sea Cucumber Holothuria atra, α-Glucosidase Inhibitory Activity and the Identification of a Novel Triterpene Glycoside” (Nutrients, 2023).
≈ marks a conversion by molar mass, not a printed value. Read-outs that look alike come from different tables or passages of the source.

Key:
α-glucosidase [1] = target: α-glucosidase; set-up: method as in PMID 25735900; details: cited from earlier work; for IC50: purified from S. japonicas, read-out: IC50 against α-glucosidase; for α-glucosidase inhibitory activity: purified from internal organs of S. japonicus
α-glucosidase [2] = target: α-glucosidase; set-up: method as in PMID 22416705; details: cited from earlier work; for IC50 against α-glucosidase: fatty acids from body wall of S. japonicus; for α-glucosidase inhibitory activity: purified from body wall of S. japonicus
α-glucosidase [3] = target: α-glucosidase; set-up: method as in PMID 23355366; details: read-out: IC50 against α-glucosidase; cited from earlier work
[4] = target: α-glucosidase from Saccharomyces cerevisiae; assay: α-glucosidase inhibition assay (PNPG substrate); type: biochemical; details: commercial pure fatty acids; acarbose positive control; three repeats; read-out: IC50 against α-glucosidase
Experimental: The reference standard for the GC-MS analysis was a Supelco 37 Component FAME mix from Sigma Aldrich (Sigma-Aldrich Chemie GmbH, Steinheim, Germany). Pure fatty acids, including palmitoleic acid (≥98.5%), arachidonic acid, and eicosapentaenoic acid (≥99%), were purchased from Sigma Aldrich (Sigma-Aldrich Chemie GmbH, Steinheim, Germany).
The α-glucosidase inhibition was assessed using the method described by Su et al. (2013 and Trinh et al. (2016), with a slight modification. In total, 100 μL of the α-glucosidase enzyme solution from Saccharomyces cerevisiae (0.2 U/mL in a 0.1 M phosphate buffer at pH 6.8) and 50 μL of the sample dissolved in the phosphate buffer containing 6% DMSO 0.25–20 mg/mL), and were incubated in a transparent 96-well plate at 37 °C for 15 min. Next, 50 μL of PNPG (5 mM in a 0.1 m phosphate buffer) was added. The PNPG was hydrolyzed to release p-nitrophenyl (PNP), and this process was monitored at 405 nm for 30 min at 37 °C, with a BioTek Eon microplate reader (Winooski, VT, USA)) using the Gen5 version 2.06 software. […] The IC50 values were calculated with GraphPad Prism 6 software (GraphPad Software Inc, La Jolla, CA, USA). The IC50 values were subjected to one-way analysis of variance (ANOVA) and the Tukey post hoc test, using GraphPad Prism 6 software to assess any significant differences among the treatments. P-values < 0.05 were considered significant.

[5] = solubility in NMR solvent; details: noticed when preparing the compounds for NMR analysis
α-glucosidase [6] = system: α-glucosidase; set-up: method as in PMID 26932154; details: cited from earlier work
diabetic mice = system: diabetic mice; set-up: method as in PMID 26932154; details: treatment of diabetic mice; cited from earlier work

CCCCCC/C=C\CCCCCCCC(=O)OCC(O)COC(=O)CCCCCCC/C=C\CCCCCC [1,3-Dipalmitolein]
IC50 (α-glucosidase [1]): 4.45 µM
α-glucosidase inhibitory activity (α-glucosidase [1]): strong

CCCCCCC/C=C\C/C=C\CCCCCC(=O)O [7(Z),10(Z)-octadecadienoic acid]
IC50 against α-glucosidase (α-glucosidase [2]): 0.49 ± 0.05 µg/mL (≈ 1.75 µM)
α-glucosidase inhibitory activity (α-glucosidase [2]): strong

CCCCCCCCCC/C=C\CCCCCC(=O)O [7(Z)-octadecenoic acid]
IC50 against α-glucosidase (α-glucosidase [2]): 0.51 ± 0.02 µg/mL (≈ 1.81 µM)
α-glucosidase inhibitory activity (α-glucosidase [2]): strong

CCCCC/C=C\C/C=C\C/C=C\C/C=C\CCCC(=O)O [Arachidonic acid]
IC50 (α-glucosidase [3]): 211 ± 2 µM
IC50 [4]: 596 ± 44 µM

CC/C=C\C/C=C\C/C=C\C/C=C\C/C=C\CCCC(=O)O [Eicosapentaenoic acid]
IC50 [4]: 541 ± 39 µM

CCCCCC/C=C\CCCCCCCC(=O)O [Palmitoleic acid]
IC50 (α-glucosidase [3]): 265 ± 2 µM
IC50 [4]: 320 ± 32 µM

CCCCCCCC/C=C\CCCCCCCC(=O)O [cis-9-octadecenoic acid]
IC50 (α-glucosidase [1]): 14.9 µM
α-glucosidase inhibitory activity (α-glucosidase [1]): strong

CC1OC(OC2C(OC3CCC4(C)C5=CC(O)C67C(=O)OC(C)(C8CCC(C)(C)O8)C6(O)CCC7(C)C5CCC4C3(C)C)OCC(O)C2O)C(O)C(O)C1O (stereo not drawn) [compound 1, desholothurin B]
solubility in methanol-d4 [5]: soluble

COC1C(O)C(CO)OC(OC2C(O)C(CO)OC(OC3C(C)OC(OC4C(OC5CCC6(C)C7=CC(O)C89C(=O)OC(C)(CCCC(C)C)C8(O)CCC9(C)C7CCC6C5(C)C)OCC(OS(=O)(=O)O)C4O)C(O)C3O)C2O)C1O.[Na+] (stereo not drawn) [echinoside A]
α-glucosidase activity (α-glucosidase [6]): inhibited
postprandial blood glucose levels (diabetic mice): suppressed postprandial blood glucose levels

CO[C@@H]1[C@@H](O)[C@H](O[C@@H]2[C@@H](O)[C@H](O[C@H]3[C@H](O)[C@@H](O)[C@H](O[C@H]4[C@H](O[C@H]5CC[C@]6(C)C7=C[C@H](O)[C@@]89C(=O)O[C@@](C)(C%10CCC(C)(C)O%10)[C@@]8(O)CC[C@@]9(C)[C@@H]7CC[C@H]6C5(C)C)OC[C@@H](OS(=O)(=O)O)[C@@H]4O)O[C@@H]3C)O[C@H](CO)[C@H]2O)O[C@H](CO)[C@H]1O (stereo partly drawn) [holothurin A]
α-glucosidase activity (α-glucosidase [6]): inhibited
postprandial blood glucose levels (diabetic mice): suppressed postprandial blood glucose levels
